# Measurements taken from ChEMBL document CHEMBL4007451, “The 2014 Philip S. Portoghese Medicinal Chemistry Lectureship: The "Phenylalkylaminome" with a Focus on Selected Drugs of Abuse” (J Med Chem, 2017).
# Legend:
# [1] = species: Rattus norvegicus; assay: Induction of stimulus generalization in Sprague-Dawley rat trained to discriminate rac-cathinone assessed as appropriate responding level to training drug by two lever method; type: functional
# [2] = Displacement of [3H]DTG from sigma receptor (unknown origin); set-up: species or system Homo sapiens
# [3] = biological target: T1, 5-hydroxytryptamine receptor 1A (Rattus norvegicus, UniProt P19327); assay: Displacement of [3H]-8-OH-DPAT from 5-HT1A receptor in Sprague-Dawley rat cortex membranes after 15 mins by liquid scintillation spectrometric method; type: cell membranes
# T1 sequence (P19327 whole entry): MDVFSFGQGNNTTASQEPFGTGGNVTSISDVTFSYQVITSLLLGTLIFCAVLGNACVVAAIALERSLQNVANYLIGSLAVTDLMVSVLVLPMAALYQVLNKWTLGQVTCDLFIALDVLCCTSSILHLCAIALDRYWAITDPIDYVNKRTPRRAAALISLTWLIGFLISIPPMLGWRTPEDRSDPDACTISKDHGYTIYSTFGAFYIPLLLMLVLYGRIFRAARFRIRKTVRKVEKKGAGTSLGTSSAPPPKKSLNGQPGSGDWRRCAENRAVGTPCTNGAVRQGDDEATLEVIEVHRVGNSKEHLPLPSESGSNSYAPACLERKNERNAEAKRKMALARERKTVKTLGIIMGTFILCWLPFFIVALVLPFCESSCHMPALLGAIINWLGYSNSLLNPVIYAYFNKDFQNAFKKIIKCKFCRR
# [4] = species: Rattus norvegicus; assay: Induction of stimulus generalization in rat trained to discriminate DOM assessed as appropriate responding level to training drug by two lever method; type: functional
# [5] = Displacement of [3H]ketanserin from rat brain 5HT2 receptor
# [6] = biological target: T2, 5-hydroxytryptamine receptor 2A (Rattus norvegicus, UniProt P14842); assay: Displacement of [125I](+/-)DOI from rat 5HT2A after 1 hr by beta scintillation counting method
# T2 sequence (P14842 whole entry): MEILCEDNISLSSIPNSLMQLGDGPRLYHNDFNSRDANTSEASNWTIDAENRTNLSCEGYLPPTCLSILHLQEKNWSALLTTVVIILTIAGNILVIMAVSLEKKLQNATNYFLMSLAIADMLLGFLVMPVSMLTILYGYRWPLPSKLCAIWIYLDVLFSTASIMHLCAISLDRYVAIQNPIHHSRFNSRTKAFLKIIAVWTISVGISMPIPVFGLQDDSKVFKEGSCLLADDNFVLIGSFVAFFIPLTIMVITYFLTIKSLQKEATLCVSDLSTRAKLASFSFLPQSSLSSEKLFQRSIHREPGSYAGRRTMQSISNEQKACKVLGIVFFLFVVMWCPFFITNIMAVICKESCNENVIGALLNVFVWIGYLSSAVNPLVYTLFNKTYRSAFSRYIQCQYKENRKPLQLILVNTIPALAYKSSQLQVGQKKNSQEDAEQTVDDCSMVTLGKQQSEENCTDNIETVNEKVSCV
# [7] = biological target: Sigma non-opioid intracellular receptor 1 (Cavia porcellus, UniProt Q60492); assay: Displacement of (+)-[3H]pentazocine from guinea pig brain membrane sigma1 receptor by scintillation spectrometric method
# Sequence of Sigma non-opioid intracellular receptor 1 (Q60492 whole entry): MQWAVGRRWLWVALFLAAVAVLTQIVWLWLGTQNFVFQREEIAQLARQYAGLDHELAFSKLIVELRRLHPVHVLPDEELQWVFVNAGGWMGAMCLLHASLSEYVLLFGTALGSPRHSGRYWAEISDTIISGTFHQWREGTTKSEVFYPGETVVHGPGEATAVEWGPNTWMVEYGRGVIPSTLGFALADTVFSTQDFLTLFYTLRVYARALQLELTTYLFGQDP
# [8] = test system: Mus musculus; assay: Anxiolytic-like activity in iv dosed ICR mouse assessed as increase in marbles left uncovered measured after 30 mins by marble burying assay; type: functional; settings: 0.5 h
# [9] = species: Rattus norvegicus; assay: Induction of stimulus generalization in rat trained to discriminate PMMA assessed as appropriate responding level to training drug by two lever method; type: functional; settings: for ED50: Rattus norvegicus
# [10] = species: Rattus norvegicus; assay: Induction of stimulus generalization in rat trained to discriminate MDMA assessed as appropriate responding level to training drug by two lever method; type: functional
# [11] = biological target: Sodium-dependent dopamine transporter (Rattus norvegicus, UniProt P23977); assay: Activity at DAT in rat synaptosomes assessed as release of [3H]DA after 5 mins by liquid scintillation counting method; type: subcellular
# Sequence of Sodium-dependent dopamine transporter (Rattus norvegicus, UniProt P23977) (P23977 whole entry): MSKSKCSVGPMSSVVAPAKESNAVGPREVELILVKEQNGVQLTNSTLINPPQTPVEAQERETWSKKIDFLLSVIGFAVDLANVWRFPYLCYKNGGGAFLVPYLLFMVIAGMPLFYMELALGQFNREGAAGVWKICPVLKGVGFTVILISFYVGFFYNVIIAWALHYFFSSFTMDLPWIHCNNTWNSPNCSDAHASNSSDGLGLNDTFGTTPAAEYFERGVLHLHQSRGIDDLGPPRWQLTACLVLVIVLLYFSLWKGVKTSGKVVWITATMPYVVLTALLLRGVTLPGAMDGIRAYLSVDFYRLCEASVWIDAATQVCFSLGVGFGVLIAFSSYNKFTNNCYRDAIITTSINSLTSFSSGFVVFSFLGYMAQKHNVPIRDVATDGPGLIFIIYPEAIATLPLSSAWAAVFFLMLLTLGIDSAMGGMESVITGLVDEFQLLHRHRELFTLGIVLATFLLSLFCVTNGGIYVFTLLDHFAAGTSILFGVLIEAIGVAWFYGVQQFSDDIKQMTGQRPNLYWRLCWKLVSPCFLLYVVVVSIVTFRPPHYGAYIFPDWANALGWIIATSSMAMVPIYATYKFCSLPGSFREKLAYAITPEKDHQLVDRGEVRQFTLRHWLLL
# [12] = Activity at NET in rat synaptosomes assessed as release of [3H]NE after 30 mins by liquid scintillation counting method; type: subcellular
# [13] = biological target: Sodium-dependent serotonin transporter (Rattus norvegicus, UniProt P31652); assay: Activity at SERT in rat synaptosomes assessed as release of [3H]HT after 5 mins by liquid scintillation counting method; type: subcellular
# Sequence of Sodium-dependent serotonin transporter (Rattus norvegicus, UniProt P31652) (P31652 whole entry): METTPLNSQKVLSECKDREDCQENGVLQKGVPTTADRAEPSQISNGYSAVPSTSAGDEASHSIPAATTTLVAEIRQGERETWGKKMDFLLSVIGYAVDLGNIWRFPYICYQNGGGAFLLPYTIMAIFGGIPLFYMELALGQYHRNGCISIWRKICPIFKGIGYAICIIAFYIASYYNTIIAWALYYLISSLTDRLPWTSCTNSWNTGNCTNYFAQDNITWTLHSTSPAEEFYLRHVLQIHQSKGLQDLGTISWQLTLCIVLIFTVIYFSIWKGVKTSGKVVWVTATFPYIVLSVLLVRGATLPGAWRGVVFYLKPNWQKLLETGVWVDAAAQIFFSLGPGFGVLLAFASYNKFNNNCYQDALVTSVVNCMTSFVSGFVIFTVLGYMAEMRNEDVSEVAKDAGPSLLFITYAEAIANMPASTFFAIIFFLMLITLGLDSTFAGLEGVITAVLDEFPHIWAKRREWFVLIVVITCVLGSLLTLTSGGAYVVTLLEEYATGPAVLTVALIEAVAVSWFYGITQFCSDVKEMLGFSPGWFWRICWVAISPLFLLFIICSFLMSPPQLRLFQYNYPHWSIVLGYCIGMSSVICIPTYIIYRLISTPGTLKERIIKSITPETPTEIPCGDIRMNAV
# [14] = species: Rattus norvegicus; assay: Induction of stimulus generalization in Sprague-Dawley rat trained to discriminate DOM assessed as appropriate responding level to training drug by two lever method; type: functional; settings: Rattus norvegicus, Sprague-Dawley
# [15] = species: Rattus norvegicus; assay: Induction of stimulus generalization in Sprague-Dawley rat trained to discriminate alpha-ET assessed as appropriate responding level to training drug by two lever method; type: functional; settings: Rattus norvegicus, Sprague-Dawley
# [16] = biological target: Sodium-dependent serotonin transporter (Homo sapiens, UniProt P31645); assay: Activity at SERT (unknown origin) assessed as release of [3H]HT
# Sequence of Sodium-dependent serotonin transporter (Homo sapiens, UniProt P31645) (P31645 whole entry): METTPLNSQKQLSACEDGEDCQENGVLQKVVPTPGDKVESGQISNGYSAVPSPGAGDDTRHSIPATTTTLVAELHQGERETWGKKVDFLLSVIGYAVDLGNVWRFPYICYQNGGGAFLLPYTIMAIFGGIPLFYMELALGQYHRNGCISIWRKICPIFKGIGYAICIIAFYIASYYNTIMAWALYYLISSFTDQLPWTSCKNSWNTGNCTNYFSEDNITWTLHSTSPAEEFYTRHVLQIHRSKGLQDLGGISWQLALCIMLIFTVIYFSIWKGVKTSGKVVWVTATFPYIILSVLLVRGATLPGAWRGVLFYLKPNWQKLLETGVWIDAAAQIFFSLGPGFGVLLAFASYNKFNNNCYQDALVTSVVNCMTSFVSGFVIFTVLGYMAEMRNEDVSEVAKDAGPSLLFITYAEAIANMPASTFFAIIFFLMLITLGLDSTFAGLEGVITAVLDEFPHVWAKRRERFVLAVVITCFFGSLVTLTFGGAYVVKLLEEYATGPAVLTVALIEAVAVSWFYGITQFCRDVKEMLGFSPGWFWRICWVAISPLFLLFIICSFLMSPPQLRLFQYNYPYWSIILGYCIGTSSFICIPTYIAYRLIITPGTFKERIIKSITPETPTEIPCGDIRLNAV
# [17] = biological target: Sodium-dependent dopamine transporter (Homo sapiens, UniProt Q01959); assay: Activity at DAT (unknown origin) assessed as release of [3H]DA
# Sequence of Sodium-dependent dopamine transporter (Homo sapiens, UniProt Q01959) (Q01959 whole entry): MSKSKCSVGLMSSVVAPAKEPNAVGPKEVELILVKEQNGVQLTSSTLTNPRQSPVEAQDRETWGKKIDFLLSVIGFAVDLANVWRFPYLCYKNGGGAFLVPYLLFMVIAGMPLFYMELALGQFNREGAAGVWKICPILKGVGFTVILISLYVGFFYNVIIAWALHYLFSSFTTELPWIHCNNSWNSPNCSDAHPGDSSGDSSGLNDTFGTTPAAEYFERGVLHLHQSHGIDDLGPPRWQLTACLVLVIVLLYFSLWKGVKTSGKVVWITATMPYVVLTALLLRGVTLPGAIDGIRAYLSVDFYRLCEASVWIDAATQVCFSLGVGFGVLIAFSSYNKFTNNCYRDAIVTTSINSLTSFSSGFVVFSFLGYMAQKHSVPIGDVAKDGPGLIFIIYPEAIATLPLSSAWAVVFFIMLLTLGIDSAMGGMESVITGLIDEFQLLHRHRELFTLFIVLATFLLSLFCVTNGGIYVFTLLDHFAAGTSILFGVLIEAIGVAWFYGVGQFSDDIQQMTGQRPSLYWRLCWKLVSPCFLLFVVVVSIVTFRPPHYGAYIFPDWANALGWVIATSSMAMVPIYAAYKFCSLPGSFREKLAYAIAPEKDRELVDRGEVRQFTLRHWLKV
# [18] = species: Homo sapiens; assay: Selectivity ratio of EC50 for SERT (unknown origin) assessed as release of [3H]HT to EC50 for DAT (unknown origin) by [3H]DA release assay
# [19] = biological target: 5-hydroxytryptamine receptor 2A (Homo sapiens, UniProt P28223); assay: Displacement of [125I]DOI from recombinant human 5HT2A expressed in Syrian hamster AV12 cell membranes
# Sequence of 5-hydroxytryptamine receptor 2A (Homo sapiens, UniProt P28223) (P28223 whole entry): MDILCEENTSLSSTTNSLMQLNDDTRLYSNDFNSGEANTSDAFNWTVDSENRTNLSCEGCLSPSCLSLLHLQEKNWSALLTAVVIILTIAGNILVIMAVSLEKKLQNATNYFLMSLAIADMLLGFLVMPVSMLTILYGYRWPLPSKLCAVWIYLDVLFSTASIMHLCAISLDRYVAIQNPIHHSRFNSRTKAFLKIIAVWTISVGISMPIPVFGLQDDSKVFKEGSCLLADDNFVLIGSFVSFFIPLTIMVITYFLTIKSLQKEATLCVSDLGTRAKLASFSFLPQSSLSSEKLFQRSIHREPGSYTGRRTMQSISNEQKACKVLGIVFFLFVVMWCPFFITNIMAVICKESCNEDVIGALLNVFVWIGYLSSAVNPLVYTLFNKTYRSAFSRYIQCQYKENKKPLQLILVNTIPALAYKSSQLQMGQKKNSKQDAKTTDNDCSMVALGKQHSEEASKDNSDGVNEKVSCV
# [20] = biological target: T2, 5-hydroxytryptamine receptor 2A; assay: Displacement of [3H]DOB from 5HT2A in Sprague-Dawley rat cortex membranes measured after 15 mins by scintillation counting method; type: cell membranes
# [21] = species: Rattus norvegicus; assay: Induction of stimulus generalization in rat trained to discriminate (-)ephedrine assessed as appropriate responding level to training drug by two lever method; type: functional
# [22] = species: Rattus norvegicus; assay: Induction of stimulus generalization in rat trained to discriminate S(+)methamphetamine assessed as appropriate responding level to training drug by two lever method; type: functional
# [23] = species: Rattus norvegicus; assay: Induction of stimulus generalization in rat trained to discriminate (+)amphetamine assessed as appropriate responding level to training drug by two lever method; type: functional
# [24] = species: Rattus norvegicus; assay: Induction of stimulus generalization in Sprague-Dawley rat trained to discriminate PMMA assessed as appropriate responding level to training drug by two lever method; type: functional
# [25] = species: Rattus norvegicus; assay: Induction of stimulus generalization in Sprague-Dawley rat trained to discriminate MDMA assessed as appropriate responding level to training drug by two lever method; type: functional; settings: Rattus norvegicus, Sprague-Dawley
# [26] = species: Rattus norvegicus; assay: Induction of stimulus generalization in Sprague-Dawley rat trained to discriminate AMPH assessed as appropriate responding level to training drug by two lever method; type: functional
# [27] = biological target: T2, 5-hydroxytryptamine receptor 2A; assay: Displacement of [3H]ketanserin from 5HT2A in Sprague-Dawley rat frontal cortex membranes measured after 15 mins by scintillation counting method; set-up: species or system Membrane
# [28] = species: Rattus norvegicus; assay: Induction of stimulus generalization in Sprague-Dawley rat trained to discriminate S(-)MCAT assessed as appropriate responding level to training drug by two lever method; type: functional
# [29] = species: Rattus norvegicus; assay: Induction of stimulus generalization in Sprague-Dawley rat trained to discriminate S(+)AMPH assessed as appropriate responding level to training drug by two lever method; type: functional
smiles,measurement,setting,value
C[C@H](N)[C@@H](O)c1ccccc1 [CATHINE],ED50,[1],1.61 mg/kg
C=CCN1CC[C@]2(C)c3cc(O)ccc3C[C@H]1[C@H]2C,Ki,[2],150 nM
CCCCN(CCCC)[C@@H]1CCc2cccc(O)c2C1,Ki,[3],109 nM
CC(N)Cc1c[nH]c2ccccc12 (stereo unspecified),ED50,[4],3.1 mg/kg
same,Ki,[5],3100 nM
CCN(CC)[C@@H]1CCc2cccc(O)c2C1,Ki,[3],9.65 nM
COc1cc([C@@H](OC)[C@H](C)N)c(OC)cc1Br,Ki,[6],0.8 nM
C[C@H](Cc1ccccc1)NCCCCCc1ccccc1,Ki,[7],0.5 nM
c1ccc(CCCCCN2CCCC(c3ccccc3)C2)cc1 (stereo unspecified),Ki,[7],0.14 nM
CN1C(=O)CN=C(c2ccccc2)c2cc(Cl)ccc21 [DIAZEPAM],ED50,[8],0.26 mg/kg
COc1cccc(C[C@H](C)N)c1 [(S)-M-METHOXYAMPHETAMINE],Activity,[9],20 - 80%
same,Activity,[10],<20%
CNC(C)Cc1ccc2c(c1)OCO2 (racemic) [MIDOMAFETAMINE],ED50,[9],1.32 mg/kg
same,EC50,[11],278 nM
same,EC50,[12],110 nM
same,EC50,[13],72 nM
COc1cc(CC(C)N)c(OC)cc1C (stereo unspecified) [DOM],ED50,[14],0.4 mg/kg
same,ED50,[15],0.4 mg/kg
same,ED50,[4],0.44 mg/kg
CNC(C)C(=O)c1ccccc1 (stereo unspecified),EC50,[16],3860 nM
same,EC50,[17],12.5 nM
same,Ratio EC50,[18],> 200
CN(C)[C@@H]1CCc2cccc(O)c2C1,Ki,[3],75 nM
CC1CCN(CCCCCc2ccccc2)CC1,Ki,[7],0.07 nM
COc1ccc(C[C@H](C)N)cc1OC,ED50,[9],2.6 mg/kg
same,ED50,[10]; Rattus norvegicus,6.1 mg/kg
CCCNC(C)Cc1cc(OC)c(Br)cc1OC (stereo unspecified),Ki,[19],88.5 nM
COc1cc(CC(C)N)c(OC)cc1I (stereo unspecified),Ki,[20],0.7 nM
CN[C@H](C)Cc1ccccc1,ED50,[21],0.9 mg/kg
same,ED50,[22],1.61 mg/kg
CN[C@H](C)Cc1ccc(OC)cc1,EC50,[11],1600 nM
same,EC50,[12],> 14000 nM
same,EC50,[13],134 nM
C[C@@H](N)C(=O)c1ccccc1,ED50,[23],4.41 mg/kg
same,ED50,[1],0.72 mg/kg
CC[C@H](N)Cc1c[nH]c2ccccc12,ED50,[14],2.7 mg/kg
same,ED50,[15],1.3 mg/kg
same,ED50,[24],1.4 mg/kg
same,EC50,[11],64 nM
same,ED50,[25],2 mg/kg
same,EC50,[12],> 10000 nM
same,Activity,[26],53%
same,EC50,[13],20 nM
CN[C@H](C)Cc1ccc2c(c1)OCO2,Ki,[27],3310 nM
same,EC50,[11],3700 nM
same,EC50,[12],560 nM
same,EC50,[13],340 nM
COc1ccc(C[C@@H](C)N)cc1,ED50,[9],0.4 mg/kg
same,Activity,[10],<20%
CNC(C)C(=O)c1ccc(C(F)(F)F)cc1 (stereo unspecified),EC50,[16],190 nM
same,EC50,[17],2700 nM
same,Ratio EC50,[18],14
O=C1CC2(CCCC2)CC(=O)N1CCCCN1CCN(c2ncccn2)CC1 [BUSPIRONE],ED50,[8],2.36 mg/kg
CN[C@@H](C)[C@H](O)c1ccccc1 [EPHEDRINE],ED50,[21],0.8 mg/kg
same,ED50,[22],13.1 mg/kg
COc1cc(OC)c(OC)cc1CC(C)N (stereo unspecified),Ki,[19],57.9 nM
same,Ki,[20],81 nM
C[C@H](N)C(=O)c1ccccc1 [CATHINONE],ED50,[23],0.32 mg/kg
same,ED50,[28],0.17 mg/kg
same,ED50,[1],0.22 mg/kg
same,ED50,[29],0.34 mg/kg
